Data reported in US20250188085A1, “COMPOSITIONS AND METHODS FOR INHIBITION OF RAS” (THERAS, INC., priority 2022, published 2025).
Like-named read-outs stand apart in the source and are kept apart here.

Tests used:
[1] = molecular target: T1, GppNHp-loaded KRAS4b (amino acids 1-169) G12C/C118S protein (Homo sapiens, UniProt P01116, C118S/G12C); assay: Covalent cysteine 12 modification by MALDI-TOF MS, GppNHp-loaded KRAS G12C; format: binding; conditions: 15 minutes reaction time point
T1 construct: KRAS4b (amino acids 1-169) G12C/C118S protein; made in house
Outline: (§1)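 KRAS4b 1-169 G12C/C118S loaded with GDP, GppNHp or GTP was used at 1 μM in 20 mM HEPES, 150 mM NaCl, 1 mM MgCl2, pH 7.3, and incubated with compound (5 mM DMSO stock) at room temperature in the dark. % modification at 15 min is adduct peak height over total protein peak heights by linear-mode MALDI-TOF.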

[2] = molecular target: T2, GTP-loaded KRAS4b (amino acids 1-169) G12C/C118S protein (Homo sapiens, UniProt P01116, C118S/G12C); assay: Covalent cysteine 12 modification by MALDI-TOF MS, GTP-loaded KRAS G12C; format: binding; conditions: 15 minutes reaction time point
T2 construct: KRAS4b (amino acids 1-169) G12C/C118S protein; made in house
Outline: as §1

[3] = molecular target: T3, GDP-loaded KRAS4b (amino acids 1-169) G12C/C118S protein (Homo sapiens, UniProt P01116, C118S/G12C); assay: Covalent cysteine 12 modification by MALDI-TOF MS, GDP-loaded KRAS G12C; format: binding; conditions: 15 minutes reaction time point
T3 construct: KRAS4b (amino acids 1-169) G12C/C118S protein; made in house
Outline: as §1

[4] = molecular target: T4, Avi-KRAS G12C (1-169) GppNHp/RAF1 RBD-3×FLAG (52-151) (Homo sapiens, UniProt P01116, G12C); assay: Raf1 RBD-KRAS G12C-GppNHp disruption (protein:protein interaction HTRF assay); format: biochemical
T4 construct: Avi-KRAS G12C (1-169) GppNHp/RAF1 RBD-3×FLAG (52-151)
Outline: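 HTRF measuring disruption of 50 nM Avi-KRAS G12C (1-169) loaded with GppNHp binding RAF1 RBD-3×FLAG (52-151), in pH 7.5 Tris buffer with 5 mM MgCl2, 0.1% BSA, 10% DMSO. KRAS preincubated with compound 1 h, then RBD 1 h, then detection reagents 1 h, all at room temperature. Compound titration 30-0.02 μM; activity expressed as percent of DMSO control.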

pERK in NCI-H358 cells = assay: Cell-based pERK HTRF assay; conditions: 30 min incubation, read-out: pERK in NCI-H358 cell inhibition IC50
Outline: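 Cells seeded at 4×10^4/well in RPMI with 10% FBS, then next day treated for 30 min with a 9-point, 3-fold series from 75 μM top concentration at 0.25% DMSO. Lysates were read for pERK by HTRF (d2/Eu cryptate antibodies) after 4–24 h at room temperature, emission at 615 nm.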

Compound	GppNHp-KRAS G12C percent of modification [1]	GTP-KRAS G12C percent of modification [2]	GDP-KRAS G12C percent of modification [3]	IC50 [4] [nM]	IC50 (pERK in NCI-H358 cells) [nM]	IC50 (pERK in NCI-H358 cells; Homo sapiens, NCI-H358, 0.5 h) [nM]
C=CC(=O)N1CC[C@@H](Oc2nc(OC[C@@]34CCCN3C[C@H](F)C4)nc3c(F)c(-c4ccc(F)c5sc(N)c(C#N)c45)c(C(F)(F)F)cc23)[C@H]1C (single isomer, unassigned) [Compound 64]	D (percent of modification <10%)	D (percent of modification <10%)	D (percent of modification <10%)	> 20000	> 1000	
C=CC(=O)N1C[C@@H](F)[C@@H](Oc2nc(OC[C@@]34CCCN3C[C@H](F)C4)nc3c(F)c(-c4ccc(F)c5sc(N)c(C#N)c45)c(Cl)cc23)C1 [Compound 93]	A (percent of modification ≥70%)	B (50≤percent of modification <70%)	A (percent of modification ≥70%)	≤ 500		≤ 100
C=CC(=O)N1CC[C@@H](Oc2nc(OC[C@@]34CCCN3C[C@H](F)C4)nc3cc(-c4ccc(F)c5sc(N)c(C#N)c45)c(C#N)cc23)[C@H]1C [Compound 107]	A (percent of modification ≥70%)	C (10%≤modification <50%)	A (percent of modification ≥70%)	≤ 500		≤ 100
C=CC(=O)N1CC[C@@H](Oc2nc(OC[C@@]34CCCN3C[C@H](F)C4)nc3cc(-c4ccc(F)c5sc(N)c(C#N)c45)c(F)cc23)[C@H]1COC [Compound 113]	D (percent of modification <10%)	D (percent of modification <10%)	C (10%≤modification <50%)	> 20000		> 1000
C=CC(=O)N1CC[C@@H](Oc2nc(OCC34CCCN3CCC4)nc3c(F)c(-c4ccc(F)c5sc(N)c(C#N)c45)c(C(F)(F)F)cc23)[C@H]1C [Compound 100]	C (10%≤modification <50%)	C (10%≤modification <50%)	B (50≤percent of modification <70%)	≤ 500		100 to 1000
C=CC(=O)N1C[C@H](Oc2nc(OC[C@@]34CCCN3C[C@H](F)C4)nc3c(F)c(-c4ccc(F)c5sc(N)nc45)c(C(F)(F)F)cc23)C[C@H]1CO [Compound 66]	A (percent of modification ≥70%)	C (10%≤modification <50%)	A (percent of modification ≥70%)	≤ 500		≤ 100
